From patent US10334869B2, “Method for increasing concentration of avenanthramides in oats” (HER MAJESTY THE QUEEN IN RIGHT OF CANADA, AS REPRESENTED BY …, priority 2009, dated 2019)
Where two headings read alike, the source gives them in different places.

Assays:
dormant oat VAO-48 = experiment: CaCl2 in anaerobic steep water, avenanthramide accumulation during false malting of VAO-48; format: in vivo; settings: for All others / Avenanth A / Avenanth B / Avenanth C / Total Avenanth: four days 30° C., avenanthramide A equivalents
Experimental: (§1) In a third method, samples (10 μl) were injected into a C18 reversed-phase column (Zorbax Stable™ bond C18, 3.5 μm, 4.6 mm×150 mm) maintained at 30° C. Solvents for HPLC were A: methanol, B: water and C: 0.5M formic acid. The solvent gradient (vol. %) consisted of 45A:45B:10C, linearly increasing to 55A:35B:10C over 24 min, and linearly increasing to 70A:20B:10C over 9 min, then reaching 95A:5C over 3 min and holding for 3 min. The solvent gradient was brought back to original conditions over 3 min, allowed equilibrating for 3 min.
(§2) Individual avenanthramides were quantified by determining the peak areas at 330 nm relative to an external authentic avenanthramide A standard and expressed as avenanthramide A weight equivalents. Total avenanthramides were calculated by summing all the individual avenanthramide quantities calculated as avenanthramide A weight equivalents and expressed as parts per million (ppm) avenanthramide A equivalents on a dry weight basis.
25 g samples of the hulless, hairless, dormant oat VAO-48 was anaerobically steeped in either water or various concentrations of USP-grade CaCl2.(H2O)2 solutions at 35° C. After steeping for 18 hours and air drying in a seed dryer for about four hours, the seeds were surface sterilized as above then ‘false malted” using Petri dishes (150×50 mm) in the dark at 30° C. in a controlled temperature oven for four days. The germination rate in all cases was less than 1% after four days. After malting the seeds were removed, dried at room temperature (forced air) for four hours then brought to constant weight by drying at 37° C. for ˜40 hours and stored at −20° C. until analyzed for avenanthramide content by the third method described above (μg avenanthramide A equivalents/g dry wt=ppm avenanthramide A), and compared to un-malted material.

non-dormant oat VAO-22 = experiment: CaCl2 in anaerobic steep water, avenanthramide accumulation during false malting of VAO-22; format: in vivo; settings: for All others / Avenanth A / Avenanth B / Avenanth C / Total Avenanth: four days 30° C., avenanthramide A equivalents
Experimental: as §1, §2
A 1,300 g sample of VAO-22 hulless, hairless, non-dormant oat breeder's seed was used (84% germination rate after four days). The seeds were then heat treated as in Example 5. A 25 g sample was used as a control representing the un-malted seeds and stored at −20° C. until analyzed. The rest of the heat treated material was anaerobically steeped at 35° C. in either 1.0% or 2.0% Ca Cl2.(H2O)2 for 18 hours and air drying in a seed dryer for about four hours. The seeds were then surface sterilized as above and ‘false malted” in the dark at 30° C. in a controlled temperature oven for four days using Petri dishes (150×50 mm). After malting the seeds were removed, dried at room temperature (forced air) for four hours then brought to constant weight by drying at 37° C. for ˜40 hours and stored at −20° C. until analyzed for avenanthramide content by HPLC using the third method described above (μg avenanthramide A equivalents/g dry wt=ppm avenanthramide A), and compared to un-malted material.

normal cell lines = settings: about 20 to 50 ppm; cited from earlier work
smooth muscle cells [1] = settings: about 40 ppm; rat; cited from earlier work
[2] = tested on: colonic cancer cell lines; settings: about 20 to 50 ppm; cited from earlier work
smooth muscle cells [3] = settings: about 40 ppm; human; cited from earlier work
heat treated oats = experiment: germination of heat treated oats incubated with gibberellin; format: in vivo, oats (VAO-2); settings: 100 ppm gibberellin, 5 days; two-phase dry heated oats

O.O.[Ca+2].[Cl-].[Cl-] [CaCl2, CaCl2.(H2O)2]
All others (dormant oat VAO-48; 0.05% CaCl2 in steeping water): 287.3 ± 30.9 ppm | Avenanth A (dormant oat VAO-48; 0.05% CaCl2 in steeping water): 37.7 ± 5.6 ppm | Avenanth B (dormant oat VAO-48; 0.05% CaCl2 in steeping water): 122.0 ± 14.8 ppm | Avenanth C (dormant oat VAO-48; 0.05% CaCl2 in steeping water): 81.5 ± 9.4 ppm | Total Avenanth (dormant oat VAO-48; 0.05% CaCl2 in steeping water): 528.4 ± 30.9 ppm | All others (dormant oat VAO-48; 0.10% CaCl2 in steeping water): 251.4 ± 10.4 ppm | Avenanth A (dormant oat VAO-48; 0.10% CaCl2 in steeping water): 27.2 ± 11.4 ppm | Avenanth B (dormant oat VAO-48; 0.10% CaCl2 in steeping water): 113.4 ± 5.8 ppm | Avenanth C (dormant oat VAO-48; 0.10% CaCl2 in steeping water): 75.7 ± 4.6 ppm | Total Avenanth (dormant oat VAO-48; 0.10% CaCl2 in steeping water): 467.7 ± 32.1 ppm | All others (dormant oat VAO-48; 0.50% CaCl2 in steeping water): 400.1 ± 0.3 ppm | Avenanth A (dormant oat VAO-48; 0.50% CaCl2 in steeping water): 59.9 ± 1.1 ppm | Avenanth B (dormant oat VAO-48; 0.50% CaCl2 in steeping water): 155.3 ± 2.3 ppm | Avenanth C (dormant oat VAO-48; 0.50% CaCl2 in steeping water): 126.4 ± 2.8 ppm | Total Avenanth (dormant oat VAO-48; 0.50% CaCl2 in steeping water): 741.7 ± 6.5 ppm | overall increase of avenanthramide concentration over un-malted seeds (dormant oat VAO-48; 1% Ca+2): about 23.6 fold | All others (dormant oat VAO-48; 1.0% CaCl2 in steeping water): 401.1 ± 15.4 ppm | Avenanth A (dormant oat VAO-48; 1.0% CaCl2 in steeping water): 68.7 ± 3.3 ppm | Avenanth B (dormant oat VAO-48; 1.0% CaCl2 in steeping water): 149.0 ± 8.2 ppm | Avenanth C (dormant oat VAO-48; 1.0% CaCl2 in steeping water): 138.1 ± 4.0 ppm | Total Avenanth (dormant oat VAO-48; 1.0% CaCl2 in steeping water): 757.0 ± 30.9 ppm | increase of avenanthramide concentration over steeping with no added Ca+2 (dormant oat VAO-48; 1% added Ca+2): approximately 1.7 fold | avenanthramide B fold over initial value (non-dormant oat VAO-22; 1% CaCl2): 23.4 fold | avenanthramide B increase over initial value (non-dormant oat VAO-22; 1% CaCl2): 2,240% | avenanthramide C fold over initial (non-dormant oat VAO-22; 1% CaCl2): 28.4 fold | avenanthramide C increase over initial (non-dormant oat VAO-22; 1% CaCl2): 2,735% | total avenanthramide fold over initial (non-dormant oat VAO-22; 1% CaCl2): 24.1 fold | total avenanthramide levels relative to initial (non-dormant oat VAO-22; 1% CaCl2): 2,307% | All others (non-dormant oat VAO-22; 1.0% CaCl2 in steeping water): 360.1 ± 2.4 ppm | Avenanth A (non-dormant oat VAO-22; 1.0% CaCl2 in steeping water): 27.0 ± 0.22 ppm | Avenanth B (non-dormant oat VAO-22; 1.0% CaCl2 in steeping water): 79.7 ± 0.26 ppm | Avenanth C (non-dormant oat VAO-22; 1.0% CaCl2 in steeping water): 65.2 ± 0.26 ppm | Total Avenanth (non-dormant oat VAO-22; 1.0% CaCl2 in steeping water): 532.0 ± 3.16 ppm | avenanthramide B fold over initial (non-dormant oat VAO-22; 2% CaCl2): 30.3 fold | avenanthramide B increase over initial value (non-dormant oat VAO-22; 2% CaCl2): 2,930% | avenanthramide C fold over initial (non-dormant oat VAO-22; 2% CaCl2): 43.5 fold | avenanthramide C increase over initial (non-dormant oat VAO-22; 2% CaCl2): 4,252% | total avenanthramide fold over initial (non-dormant oat VAO-22; 2% CaCl2): 31.9 fold | total avenanthramide levels relative to initial (non-dormant oat VAO-22; 2% CaCl2): 3,190% | All others (non-dormant oat VAO-22; 2.0% CaCl2 in steeping water): 461.7 ± 8.8 ppm | Avenanth A (non-dormant oat VAO-22; 2.0% CaCl2 in steeping water): 46.7 ± 0.08 ppm | Avenanth B (non-dormant oat VAO-22; 2.0% CaCl2 in steeping water): 103.0 ± 0.06 ppm | Avenanth C (non-dormant oat VAO-22; 2.0% CaCl2 in steeping water): 100.1 ± 0.38 ppm | Total Avenanth (non-dormant oat VAO-22; 2.0% CaCl2 in steeping water): 711.4 ± 9.32 ppm

O=C(/C=C/c1ccc(O)c(O)c1)Nc1ccc(O)cc1C(=O)O [avenanthramide C]
effect on normal cell lines (normal cell lines): no effect | nitric oxide production (smooth muscle cells [1]): inhibit | proliferation of smooth muscle cells (smooth muscle cells [1]): inhibit the proliferation | anti-inflammatory activity [2]: anti-inflammatory | anti-proliferative activity [2]: anti-proliferative activity | nitric oxide production (smooth muscle cells [3]): inhibit | proliferation of smooth muscle cells (smooth muscle cells [3]): inhibit the proliferation

gibberellin
germination (heat treated oats): almost complete restoration of germination
